From patent US8889902B2, “Acetylsalicylic acid salts” (priority 2009, dated 2014)
Values joined by “and” are separate entries in the source; they are usually repeats but may differ in a detail not shown here. Equal entries are not always repeated.

Assays:
CRP = CRP levels in blood, carrageneen inflammation model; type: in vivo, rats; settings: for CRP: 5 h after carrageneen; for CRP increase %: carrageneen control = 100
Description: To evaluate the intensity of the inflammation process the CRP levels were determined by standard method on analyzer ? INTEGRA 400+ ? at the end of experiment (5 hours after injection of carrageneen).

tail bleeding = assay: Tail bleeding time during thrombosis experiment; type: in vivo, rats; settings: for Tail bleeding time, %: control = 100
Description: Additionally during the thrombosis experiment rat tail bleeding time was measured. The tail was transected 5 mm from the tip with scalpel and the tail was immediately immersed into 37° C. warm isotonic saline until termination of bleeding was noted. Termination of bleeding was defined as the time of complete stop of bleeding with no recurrence of bleeding within the next 30 s.

[1] = test system: adjuvant arthritis induced by Freund's adjuvant; assay: Adjuvant arthritis: paw volume and ankle joint; type: in vivo, Wistar rats; settings: for Prevention %, paw volume Day 14 / Prevention %, paw volume Day 28: vs AdA
From the text: Our experiments were scheduled to test the influence of MASA on the progress of adjuvant arthritis in comparison with MD and ASA. […] Each standard cage housed 7 rats with unlimited access to drinking water and granulated standard feed. […] All efforts were made to minimize animal suffering and to reduce the number of animals used. A modified standard procedure for inducting and evaluating the progress of chronic adjuvant arthritis was used (Bellavite P, Ortolani R, Conforti A, Immunology and Homeopathy. 3. Experimental Studies on Animal Models, Advance Access Publication 2.05, 2006, 171-186). […] The solutions of test substances were prepared ex tempore. […] Test solutions were introduced to animal p.o. by catheter into the stomach. […] The effects of test substances were evaluated using the following criteria: The oedema, i.e. the volume of hind paw was measured by oncometer. The percentage of prevention (inhibition of oedema) was calculated according to formula: P(%)=(Vc−Vt)/Vc×100, where Vc—paw volume in control group Vt—paw volume in test group P—Prevention in % (inhibition of oedema).

[2] = test system: FeCl3 induced carotid artery thrombosis; assay: FeCl3 induced carotid artery thrombosis, time till occlusion; type: in vivo, Wistar rats; settings: for Time till occlusion, %: control = 100
From the text: We chose an experimental thrombosis model based on rat arterial thrombosis induced by FeCl3 (Kurz K et al, Thromb Res 1990, 60:269-280. Wang X, Xu L, Thromb Res 2005,115:95-100). Tissue damage initiated by iron-mediated chemical oxidation predisposes the injured area to platelet adherence and aggregation followed by coagulation activation and fibrin deposition. Male Wistar rats with mass 350-420 g were used in experiments. Animals were kept in groups of 7-8 in adequate cages in climatized room at 22±1° C., relative humidity 60±5% and 12/12-hour light/darkness cycle with free access to feed and water. All experiments were carried out in accordance with the European Community Council's Directive of 24 Nov. 1986 (86/609/EEC) relative to experimental animal care. All efforts were made to minimize animal suffering and to reduce the number of animals used. Rats were randomly divided into various experimental groups, each consisting of not less than seven animals. The vehicle or test compound MD (25 mg/kg), NA (25 mg/kg), MASA (10 mg/kg), ASA (5 mg/kg) and combination MD+NA (25+25 mg/kg), MASA+NA (10+25 mg/kg) and ASA+NA (5+25 mg/kg) was administered by oral route 2 h before the initiation of thrombosis. Parallel experiments were conducted to compare the effects of a single dose of test substance (given 2 h before the initiation of thrombosis) and repeated doses (once daily for 3 days). […] Rats were anaesthetized with pentobarbital sodium (50 mg/kg, i.p. and 10 mg/kg/h) and were placed on a heat controlled operating table throughout the experiment to maintain a body temperature of 37° C. One of the carotid arteries was exposed by cervical incision, separated from the adherent tissue, vagus nerve, and a flow probe (electromagnetic blood flow meter MFV 1200, Nicon Kohden, Japan) was placed on the exposed segment of common carotid artery to record the blood flow. After a stabilization period of 15 min, thrombosis was induced by topically applying (in contact with the adventitial surface of vessel) two pieces (2×1 mm) of Whatman filter paper, soaked in 15% solution of FeCl3. Thrombosis time of carotid artery was recorded as time taken for the complete cessation of the blood flow and has been reported as time till occlusion (TTO).

rat ear skin temperature = assay: Ear skin temperature rise caused by NA, s.c. administration; type: in vivo, Wistar rats
Description: Male Wistar rats (280-330 g) were used. Animals were held in groups of 6 in climatized rooms at 22±1° C., relative humidity 60±5%, and 12/12-hour light/dark cycle with free access to drinking water and feed (R3—Lactamin AB, Sweden). For registration of changes in skin temperature of intact rats contactless temperature recording method was used (Papaliodis D et al, Br J Pharmacol 2008; 153:1382-1387). Temperature measurements were performed with a hand-held infrared thermometer (Model Proscan 510, TFA-Dostman). Animals were habituated to handling and to the infrared probe for 3 days before use. Temperature readings from the dorsal side of each ear were recorded without anaesthesia at beginning and during experiment. The ear temperature was measured every 5 min. for a period of up to 60 min. The animals were returned to their cages between measurements. NA, MD and MASA were dissolved in saline and pH was corrected immediately before usage. LA (MK 0524, Cayman Chemicals) was first dissolved in DMSO and then freshly diluted with 0.9% NaCl, on each day of the experiment. The rate of NA and LA combination was based on Summary of Product Characteristics for Tredaptive™ (nicotinic acid/laropiprant) 1000 mg/20 mg modified-release tablets.
The influence of LA, MD or MASA alone on skin temperature was checked. Each investigated compound was introduced s.c. simultaneously with NA as LA+NA [0] or 30 min in advance to NA as LA+NA [30].

[3] = 5 mg/kg/d p.o., repeated, 3 days
[4] = 10 mg/kg/d p.o., repeated, 3 days
[5] = 25 mg/kg p.o., single dose 2 h before

SMILES: CC(=O)Oc1ccccc1C(=O)O [ASA, acetylsalicylic acid]
- CRP (CRP; 100 mg/kg): 0.20 ± 0.018 mg/L
- CRP increase % (CRP; 100 mg/kg): 50%
- Tail bleeding time (tail bleeding; 5 mg/kg p.o., single dose): 13.8 ± 3.27 min
- Tail bleeding time, % (tail bleeding; 5 mg/kg p.o., single dose): 155%
- Tail bleeding time (tail bleeding; [3]): 17.8 ± 3.17^1 min
- Tail bleeding time, % (tail bleeding; [3]): 207%
- Dimensions of ankle joint on Day 14 ([1]; 10 mg/kg daily p.o.): 7.2 ± 0.12 mm
- Dimensions of ankle joint on Day 28 ([1]; 10 mg/kg daily p.o.): 6.8 ± 0.14 mm
- Paw volume on Day 14 ([1]; 10 mg/kg daily p.o.): 2.53 ± 0.10 mL
- Paw volume on Day 28 ([1]; 10 mg/kg daily p.o.): 2.08 ± 0.12 mL
- Prevention %, paw volume Day 14 ([1]; 10 mg/kg daily p.o.): −7%
- Prevention %, paw volume Day 28 ([1]; 10 mg/kg daily p.o.): 7%
- Dimensions of ankle joint on Day 14 ([1]; 100 mg/kg daily p.o.): 6.9 ± 0.15 mm
- Dimensions of ankle joint on Day 28 ([1]; 100 mg/kg daily p.o.): 7.1 ± 0.16 mm
- Paw volume on Day 14 ([1]; 100 mg/kg daily p.o.): 2.35 ± 0.14 mL
- Paw volume on Day 28 ([1]; 100 mg/kg daily p.o.): 1.52 ± 0.07 mL
- Prevention %, paw volume Day 14 ([1]; 100 mg/kg daily p.o.): 3%
- Prevention %, paw volume Day 28 ([1]; 100 mg/kg daily p.o.): 32%
- Time till occlusion ([2]; 5 mg/kg p.o., single dose 2 h before): 35.2 ± 3.02^1 min
- Time till occlusion, % ([2]; 5 mg/kg p.o., single dose): 144%
- Time till occlusion [2, 3]: 40.9 ± 3.25^1 min
- Time till occlusion, % [2, 3]: 162%

SMILES: CC(=O)Oc1ccccc1C(=O)[O-].C[N+](C)(C)NCCC(=O)O [MASA, 3-(trimethylammonioamino)propanoate Acetylsalicylic Acid Addition Salt]
- CRP (CRP; 150 mg/kg): 0.19 ± 0.009^#$ mg/l
- CRP increase % (CRP; 150 mg/kg): 33%
- CRP (CRP; 300 mg/kg): 0.21 ± 0.014 mg/L
- CRP increase % (CRP; 300 mg/kg): 67%
- Tail bleeding time (tail bleeding; 10 mg/kg p.o., single dose): 12.1 ± 2.20 min
- Tail bleeding time, % (tail bleeding; 10 mg/kg p.o., single dose): 136%
- Tail bleeding time (tail bleeding; [4]): 13.1 ± 2.63 min
- Tail bleeding time, % (tail bleeding; [4]): 152%
- Dimensions of ankle joint on Day 14 ([1]; 25 mg/kg daily p.o.): 7.0 ± 0.14 mm
- Dimensions of ankle joint on Day 28 ([1]; 25 mg/kg daily p.o.): 6.7 ± 0.15 mm
- Paw volume on Day 14 ([1]; 25 mg/kg daily p.o.): 2.20 ± 0.21 mL
- Paw volume on Day 28 ([1]; 25 mg/kg daily p.o.): 1.32 ± 0.12^#&&$ ml
- Prevention %, paw volume Day 14 ([1]; 25 mg/kg daily p.o.): 9%
- Prevention %, paw volume Day 28 ([1]; 25 mg/kg daily p.o.): 41%
- Dimensions of ankle joint on Day 14 ([1]; 100 mg/kg daily p.o.): 7.0 ± 0.13 mm
- Dimensions of ankle joint on Day 28 ([1]; 100 mg/kg daily p.o.): 6.6 ± 0.16^#@$ mm
- Paw volume on Day 14 ([1]; 100 mg/kg daily p.o.): 2.07 ± 0.17^& ml
- Paw volume on Day 28 ([1]; 100 mg/kg daily p.o.): 1.22 ± 0.08^#&&&@$ ml
- Prevention %, paw volume Day 14 ([1]; 100 mg/kg daily p.o.): 15%
- Prevention %, paw volume Day 28 ([1]; 100 mg/kg daily p.o.): 45%
- Dimensions of ankle joint on Day 14 ([1]; 200 mg/kg daily p.o.): 6.8 ± 0.10^#& mm
- Dimensions of ankle joint on Day 28 ([1]; 200 mg/kg daily p.o.): 6.9 ± 0.11 mm
- Paw volume on Day 14 ([1]; 200 mg/kg daily p.o.): 2.13 ± 0.11^& ml
- Paw volume on Day 28 ([1]; 200 mg/kg daily p.o.): 1.7 ± 0.09^#&@ ml
- Prevention %, paw volume Day 14 ([1]; 200 mg/kg daily p.o.): 12%
- Prevention %, paw volume Day 28 ([1]; 200 mg/kg daily p.o.): 24%
- Maximum temperature (rat ear skin temperature; 45 mg/kg s.c. alone): 29.2 ± 0.38^$$$ ° C.
- Time till occlusion ([2]; 10 mg/kg p.o., single dose 2 h before): 41.7 ± 3.95^2 min and 41.7 ± 3.95^2b min
- Time till occlusion, % ([2]; 10 mg/kg p.o., single dose): 171%
- Time till occlusion [2, 4]: 48.4 ± 4.35^2 min
- Time till occlusion, % [2, 4]: 191%

SMILES: C[N+](C)(C)NCCC(=O)[O-].O.O [MD, 3-(Trimethylammonioamino)propanoate dihydrate]
- CRP (CRP; 100 mg/kg): 0.22 ± 0.014 mg/L
- CRP increase % (CRP; 100 mg/kg): 83%
- Tail bleeding time (tail bleeding; 25 mg/kg p.o., single dose): 10.5 ± 1.01 min
- Tail bleeding time, % (tail bleeding; 25 mg/kg p.o., single dose): 118%
- Dimensions of ankle joint on Day 14 ([1]; 100 mg/kg daily p.o.): 7.0 ± 0.13 mm
- Dimensions of ankle joint on Day 28 ([1]; 100 mg/kg daily p.o.): 7.0 ± 0.13 mm
- Paw volume on Day 14 ([1]; 100 mg/kg daily p.o.): 2.60 ± 0.21 mL
- Paw volume on Day 28 ([1]; 100 mg/kg daily p.o.): 1.93 ± 0.13 mL
- Prevention %, paw volume Day 14 ([1]; 100 mg/kg daily p.o.): −7%
- Prevention %, paw volume Day 28 ([1]; 100 mg/kg daily p.o.): 13%
- Maximum temperature (rat ear skin temperature; 45 mg/kg s.c. alone): 29.6 ± 0.31^$$$ ° C.
- Time till occlusion [2, 5]: 29.8 ± 2.29 min
- Time till occlusion, % ([2]; 25 mg/kg p.o., single dose): 122%

SMILES: O=C(O)c1cccnc1 [NA, nicotinic acid]
- Tail bleeding time (tail bleeding; 25 mg/kg p.o., single dose): 11.5 ± 1.39 min
- Tail bleeding time, % (tail bleeding; 25 mg/kg p.o., single dose): 129%
- Maximum temperature (rat ear skin temperature; NA 15 mg/kg s.c.): 32.2 ± 0.42 °C
- maximal temperature increase from baseline (rat ear skin temperature; NA 15 mg/kg s.c., at 10 min): 2.32±0.37 °C
- maximal temperature increase in comparison with Solvent group (rat ear skin temperature; NA 15 mg/kg s.c., at 10 min): 2.57±0.43
- Increase, % (rat ear skin temperature; NA 15 mg/kg s.c., effect of NA = 100): 100%
- Time till occlusion [2, 5]: 30.3 ± 3.12 min
- Time till occlusion, % ([2]; 25 mg/kg p.o., single dose): 124%
